Key:
BCAT2 [1] = molecular target: T1, BCAT2 (Homo sapiens, UniProt O15382); assay: BCAT2 in vitro enzyme inhibition assay (hBCAT2, glutamate dehydrogenase/diaphorase/resazurin coupled fluorescence read); assay type: biochemical; settings: hBCAT2, 1 h preincubation at 25° C., one hour reaction; average where tested multiple times
T1 sequence (O15382 28-392): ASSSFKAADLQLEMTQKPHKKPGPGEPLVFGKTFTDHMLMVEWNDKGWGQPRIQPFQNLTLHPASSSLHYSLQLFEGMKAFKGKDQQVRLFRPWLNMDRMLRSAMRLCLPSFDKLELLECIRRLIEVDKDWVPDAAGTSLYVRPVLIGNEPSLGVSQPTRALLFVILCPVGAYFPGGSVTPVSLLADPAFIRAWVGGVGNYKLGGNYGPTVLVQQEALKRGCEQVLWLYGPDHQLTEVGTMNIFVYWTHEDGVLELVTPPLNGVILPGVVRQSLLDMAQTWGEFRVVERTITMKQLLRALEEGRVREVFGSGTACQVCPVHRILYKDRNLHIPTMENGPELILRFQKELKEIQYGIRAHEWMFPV
Summary of the method: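 Coupled GDH/diaphorase/resazurin fluorescence (Ex 540/Em 590) read after 1 h reaction at 25 °C, SDS-stopped; enzyme (0.33 μg/mL in mix) first preincubated 1 h with compound, 10-point 3-fold series from 100 μM final, Tris pH 8.0 buffer with NaCl, BSA; technical duplicates, averaged across tests.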

BCAT2 [2] = molecular target: T1, BCAT2; assay: BCAT2 cell inhibition using engineered A549 cells (MUT KO, BCAT1 KO; 13C6-KMV formation by LC-MS/MS); assay type: cell-based; parameters: expressed endogenous BCAT2; endogenous in cells; host or cells: A549 cells, MUT knockout and BCAT1 knockout
Text: Endogenous Methylmalonyl-CoA Mutase (MUT) and Branched Chain Aminotransferase 1 (BCAT1) in A549 cells was knocked out by CRISPR/CAS9 using the targeting system from TransOMIC Technologies. The following guide sequence was cloned into pCLIP-ALL-EFS-Blast vector to target human MUT: […] (SEQ ID NO: 35). The following guide sequence was cloned into pCLIP-ALL-EFS-Puro vector to target human BCAT1: […] (SEQ ID NO: 36). The resulting plasmids were co-transfected into 293T cells with VSV-G, P-PEX, and Fugene-6. Lentivirus was harvested and A549 cells were first transduced with lentivirus targeting MUT and polybrene. After genetic selection with blasticidin clonal selection was performed and validated via western blot analysis to confirm MUT was no longer expressed. These MUT KO cells were then transduced with lentivirus targeting BCAT1 and polybrene. After selection with puromycin clonal selection was performed and clones were validated via western blot analysis to confirm BCAT1 was no longer expressed in these cells. The result was an engineered A549 cell line that expressed endogenous BCAT2.
For KMV cell assays, on day 1, 25,000 cells/100 μL EMEM (10% FBS) were seeded in each well of a 96-well plate. On day 2, medium was replaced with 50 μL fresh EMEM (10% dialyzed FBS) containing 2× the assay concentration of experimental compound. After 15 minutes, 50 μL of 800 uM ^15N,^13C6-Isoleucine in EMEM (10% dialyzed FBS) was added to each well and incubated for 24 hours. On day 3, 50 μL of media from each well was collected and transferred to another 96-well plate for ^13C6-3-Methyl-2-Oxopentanoic Acid (KMV) analysis via LC-MS/MS. In the remaining assay wells 50 μL of Promega Glo CTG reagent was added and luminescence was measured as a cell viability readout.
For LC-MS/MS analysis 5 μL of cell assay media from each well was transferred to a 96-well plate and 45 μL of ACN:0.1% NaOH (50:50, v/v)^+0.20 nM d8-KMV was added and mixed on a shaker. 15 μL was transferred to a new 96-well plate and 15 μL of 10 mg/mL PFBHA solution was added and mixed on the shaker. The reaction was placed on ice for 30 minutes and quenched with 10 μL of ACN: Acetone (50:50, v/v) on a shaker. The resulting mixture was diluted with 100 μL of ACN:0.1% NaOH (50:50, v/v) on a shaker. 10 μL of sample were injected on the Shimadzu 20AD LC-MS/MS to quantify ^13C6-KMV.
Where a compound was tested multiple times, the average value of the tests is reported.

[3] = read-out: BCAT2 Cell Inhibition (IC50), engineered A549 cells, 24 hours, 13C6-KMV in media, average where tested multiple times

SMILES | IC50 (BCAT2 [1]) | IC50 (BCAT2 [2]) | IC50 (BCAT2 [2]; [3])
O=C(N[C@H]1CCC[C@@H](n2c(-c3ccccc3F)nc3cnc(-c4nc[nH]n4)cc32)C1)c1ccc(F)cn1 [Example 19, 5-fluoro-N-((1S,3R)-3-(2-(2-fluorophenyl)-6-(1H-1,2,4-triazol-3-yl)-1H-imidazo[4,5-c]pyridin-1-yl)cyclohexyl)picolinamide] | < 100 nM | 100 to 500 nM | 
CCN(C)c1nc2cnc(-c3nc[nH]n3)cc2n1[C@@H]1CCC[C@H](NC(=O)c2cc(Cl)ccn2)C1 [Example 21, 4-chloro-N-((1S,3R)-3-(2-(ethyl(methyl)amino)-6-(1H-1,2,4-triazol-3-yl)-1H-imidazo[4,5-c]pyridin-1-yl)cyclohexyl)picolinamide] | 100 to 500 nM |  | > 1000 nM
CCN(C)Cc1nc2cnc(-c3nc[nH]n3)cc2n1[C@@H]1CCC[C@H](NC(=O)c2cc(Cl)ccn2)C1 [Example 24, 4-chloro-N-((1S,3R)-3-(2-((ethyl(methyl)amino)methyl)-6-(1H-1,2,4-triazol-3-yl)-1H-imidazo[4,5-c]pyridin-1-yl)cyclohexyl)picolinamide] | 500 to 1000 nM |  | > 1000 nM
O=C(N[C@H]1CCC[C@@H](n2c(-c3ccccn3)nc3cnc(-c4nc[nH]n4)cc32)C1)c1cc(Cl)ccn1 [Example 25, 4-chloro-N-((1S,3R)-3-(2-(pyridin-2-yl)-6-(1H-1,2,4-triazol-3-yl)-1H-imidazo[4,5-c]pyridin-1-yl)cyclohexyl)picolinamide] | < 100 nM | 100 to 500 nM | 
CCOc1ccc(Cl)cc1C(=O)N[C@H]1CCC[C@@H](n2c(-c3ccccn3)nc3cnc(-c4nc[nH]n4)cc32)C1 [Example 26, 5-chloro-2-ethoxy-N-((1S,3R)-3-(2-(pyridin-2-yl)-6-(1H-1,2,4-triazol-3-yl)-1H-imidazo[4,5-c]pyridin-1-yl)cyclohexyl)benzamide] | < 100 nM | 100 to 500 nM | 
CCOc1ccc(Cl)cc1C(=O)N[C@H]1CCC[C@@H](n2c(-c3ncccc3F)nc3cnc(-c4nc[nH]n4)cc32)C1 [Example 27, 5-chloro-2-ethoxy-N-((1S,3R)-3-(2-(3-fluoropyridin-2-yl)-6-(1H-1,2,4-triazol-3-yl)-1H-imidazo[4,5-c]pyridin-1-yl)cyclohexyl)benzamide] | < 100 nM | < 100 nM | 

Now from value to compound:

IC50 (BCAT2 [1]) | IC50 (BCAT2 [2]) | IC50 (BCAT2 [2]; [3]) | SMILES
< 100 nM | < 100 nM |  | CC(C)Oc1ccc(Cl)cc1C(=O)N[C@H]1CCC[C@@H](n2c(-c3ccccc3F)nc3cnc(-c4nc[nH]n4)cc32)C1 [Example 18, 5-chloro-N-((1S,3R)-3-(2-(2-fluorophenyl)-6-(1H-1,2,4-triazol-3-yl)-1H-imidazo[4,5-c]pyridin-1-yl)cyclohexyl)-2-isopropoxybenzamide]
< 100 nM | < 100 nM |  | COc1ncc(Cl)cc1C(=O)N[C@H]1CCC[C@@H](n2c(-c3ccccc3F)nc3cnc(-c4nc[nH]n4)cc32)C1 [Example 22, 5-chloro-N-((1S,3R)-3-(2-(2-fluorophenyl)-6-(1H-1,2,4-triazol-3-yl)-1H-imidazo[4,5-c]pyridin-1-yl)cyclohexyl)-2-methoxynicotinamide]
< 100 nM | < 100 nM |  | CCOc1ncc(Cl)cc1C(=O)N[C@H]1CCC[C@@H](n2c(-c3ccccc3F)nc3cnc(-c4nc[nH]n4)cc32)C1 [Example 23, 5-chloro-2-ethoxy-N-((1S,3R)-3-(2-(2-fluorophenyl)-6-(1H-1,2,4-triazol-3-yl)-1H-imidazo[4,5-c]pyridin-1-yl)cyclohexyl)nicotinamide]
< 100 nM | < 100 nM |  | O=C(N[C@H]1CCC[C@@H](n2c(-c3ccccc3F)nc3cnc(-c4nc[nH]n4)cc32)C1)c1cc(Cl)ccc1OC1CC1 [Example 29, 5-chloro-2-cyclopropoxy-N-((1S,3R)-3-(2-(2-fluorophenyl)-6-(1H-1,2,4-triazol-3-yl)-1H-imidazo[4,5-c]pyridin-1-yl)cyclohexyl)benzamide]
